Measurements as given in PMC10387993, “New pyrimidine-N-β-D-glucosides: synthesis, biological evaluation, and molecular docking investigations” (Turkish Journal of Chemistry, 2023).
Values after ≈ are worked out from the molar mass of the structure shown. Like-named read-outs stand apart in the source and are kept apart here.

What was measured:
Assay type in all cases: cell-based
[1] = LDH cytotoxic activity assay, FL; conditions: human, FL cells (normal cells)
Method in brief: (§1)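 About 5 × 10^3 cells per well, in triplicate, exposed to 25, 50, 75 and 100 μg/mL of test compound for 24 h at 37 °C, 5% CO2. Cells grown in DMEM or RPMI 1640 with 10% FBS. LDH activity read as absorbance at 492–630 nm.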

[2] = LDH cytotoxic activity assay, C6; conditions: rat, C6 glioma cells
Method in brief: as §1

[3] = LDH cytotoxic activity assay, HT29; conditions: human, HT29 cells
Method in brief: as §1

[4] = test system: S. aureus MSSA ATCC 29213; assay: Microdilution MIC assay; conditions: S. aureus MSSA ATCC 29213, 24 h at 35 °C
Method in brief: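 Compounds were serially diluted in microwells and inoculated with each strain. After 24 h incubation at 35 °C, growth was scored visually. The MIC was the lowest concentration showing no turbidity.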

[5] = LDH cytotoxic activity assay, A549; conditions: human, A549 cells
Method in brief: as §1

[6] = LDH cytotoxic activity assay, MCF7; conditions: human, MCF7 cells
Method in brief: as §1

[7] = LDH cytotoxic activity assay, Hep3B; conditions: human, Hep3B cells
Method in brief: as §1

normal FL cells = assay: cells; conditions: FL normal cells, MTT
Method in brief: (§2)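 Cells were seeded at about 1 × 10^4 per well, brought to 200 μL with medium, and assessed by MTT: 4 h with MTT reagent, formazan dissolved in DMSO with Sorenson's buffer, absorbance read at 560 nm (690 nm reference). IC50 derived from percent inhibition relative to DMSO.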

in vitro = conditions: human, LC50
Method in brief: as §2

**Q.** Which cytotoxicity at 24 h, 25 μg/mL ([1]; FL, 25 μg/mL) does the source give for Cc1ccc(-c2cc(-c3cccnc3)nc(N[C@@H]3O[C@H](CO)[C@@H](O)[C@H](O)[C@H]3O)n2)cc1 [Compound 8, N-[4-(4-methylphenyl)-6-pyridin-3-ylpyrimidin-2-yl]-β-D-glucopyranosylamine] here?
**A.** Its cytotoxicity at 24 h, 25 μg/mL is 20.8%.

**Q.** What about the cytotoxicity at 24 h, 50 μg/mL ([1]; FL, 50 μg/mL) of the same molecule?
**A.** The cytotoxicity at 24 h, 50 μg/mL was 34.1%.

**Q.** And the cytotoxicity at 24 h, 75 μg/mL ([1]; FL, 75 μg/mL)?
**A.** The cytotoxicity at 24 h, 75 μg/mL was 41%.

**Q.** And the cytotoxicity at 24 h, 100 μg/mL ([1]; FL)?
**A.** The cytotoxicity at 24 h, 100 μg/mL was 69.9%.

**Q.** What about the cytotoxicity at 24 h, 100 μg/mL ([1]; as the column head prints, head prints FL) of the same molecule?
**A.** Its cytotoxicity at 24 h, 100 μg/mL is 43.5%.

**Q.** And the cytotoxicity at 24 h, 25 μg/mL ([2]; C6, 25 μg/mL)?
**A.** The cytotoxicity at 24 h, 25 μg/mL was 28.4%.

**Q.** What about the cytotoxicity at 24 h, 50 μg/mL ([2]; C6, 50 μg/mL) of the same molecule?
**A.** The cytotoxicity at 24 h, 50 μg/mL was 45.4%.

**Q.** And the cytotoxicity at 24 h, 75 μg/mL ([2]; C6, 75 μg/mL)?
**A.** Its cytotoxicity at 24 h, 75 μg/mL is 63.2%.

**Q.** And the cytotoxicity at 24 h, 100 μg/mL ([2]; C6, 100 μg/mL)?
**A.** Its cytotoxicity at 24 h, 100 μg/mL is 88.7%.

**Q.** And the cytotoxicity at 24 h, 25 μg/mL ([3]; HT29, 25 μg/mL)?
**A.** The cytotoxicity at 24 h, 25 μg/mL was 20.6%.

**Q.** What about the cytotoxicity at 24 h, 50 μg/mL ([3]; HT29, 50 μg/mL) of the same molecule?
**A.** The cytotoxicity at 24 h, 50 μg/mL was 34.5%.

**Q.** What about the cytotoxicity at 24 h, 75 μg/mL ([3]; HT29, 75 μg/mL) of the same molecule?
**A.** Its cytotoxicity at 24 h, 75 μg/mL is 75.8%.

**Q.** And the cytotoxicity at 24 h, 100 μg/mL ([3]; HT29, 100 μg/mL)?
**A.** Its cytotoxicity at 24 h, 100 μg/mL is 95.9%.

**Q.** And the MIC [4]?
**A.** The MIC was 62.5 µg/mL (≈ 147 µM).

**Q.** What about the MIC ([4]; Staphylococcus aureus, 24 h, read-out: MIC) of the same molecule?
**A.** The MIC was 62.5 to 125 µg/mL (≈ 147 to 294 µM).

**Q.** And the cytotoxicity at 24 h, 25 μg/mL ([5]; A549, 25 μg/mL)?
**A.** The cytotoxicity at 24 h, 25 μg/mL was 28.1%.

**Q.** And the cytotoxicity at 24 h, 50 μg/mL ([5]; A549, 50 μg/mL)?
**A.** Its cytotoxicity at 24 h, 50 μg/mL is 26%.

**Q.** And the cytotoxicity at 24 h, 75 μg/mL ([5]; A549, 75 μg/mL)?
**A.** Its cytotoxicity at 24 h, 75 μg/mL is 47.4%.

**Q.** What about the cytotoxicity at 24 h, 100 μg/mL ([5]; A549, 100 μg/mL) of the same molecule?
**A.** Its cytotoxicity at 24 h, 100 μg/mL is 58.1%.

**Q.** What about the cytotoxicity at 24 h, 25 μg/mL ([6]; MCF7, 25 μg/mL) of the same molecule?
**A.** Its cytotoxicity at 24 h, 25 μg/mL is 10%.

**Q.** And the cytotoxicity at 24 h, 50 μg/mL ([6]; MCF7, 50 μg/mL)?
**A.** The cytotoxicity at 24 h, 50 μg/mL was 20.1%.

**Q.** And the cytotoxicity at 24 h, 75 μg/mL ([6]; MCF7, 75 μg/mL)?
**A.** Its cytotoxicity at 24 h, 75 μg/mL is 32.8%.

**Q.** What about the cytotoxicity at 24 h, 25 μg/mL ([7]; 25 μg/mL) of the same molecule?
**A.** The cytotoxicity at 24 h, 25 μg/mL was 15.6%.

**Q.** And the cytotoxicity at 24 h, 50 μg/mL ([7]; 50 μg/mL)?
**A.** The cytotoxicity at 24 h, 50 μg/mL was 20.5%.

**Q.** And the cytotoxicity at 24 h, 75 μg/mL ([7]; 75 μg/mL)?
**A.** The cytotoxicity at 24 h, 75 μg/mL was 36.2%.

**Q.** What about the cytotoxicity at 24 h, 100 μg/mL ([7]; 100 μg/mL) of the same molecule?
**A.** The cytotoxicity at 24 h, 100 μg/mL was 52.9%.

**Q.** And the GI50 (normal FL cells)?
**A.** Its GI50 is 5.64 µg/mL (≈ 13.3 µM).

**Q.** What about the IC50 (normal FL cells; read-out: IC50) of the same molecule?
**A.** The IC50 was greater than 500 µg/mL.

**Q.** What about the IC (total growth inhibition) (normal FL cells; read-out: TGI) of the same molecule?
**A.** Its IC (total growth inhibition) is greater than 500 µg/mL.

**Q.** What about the LC50 (concentration causing 50% net cell loss) (in vitro) of the same molecule?
**A.** Its LC50 (concentration causing 50% net cell loss) is greater than 500 µg/mL.
